What is called DC50 is the concentration at which degradation of the target reaches its halfway point. Usually Dmax stands for the greatest extent of degradation seen.

The record followed here is patent US12091426B2, “Bifunctional degraders of hematopoietic progenitor kinase and therapeutic uses thereof” (Nurix Therapeutics, Inc., priority 2021, dated 2024).

For this assay, the target named is T1, HPK1 (Homo sapiens, UniProt Q92918).
T1 construct: A HiBiT tag was introduced by CRISPR on the N terminus of HPK1 in Jurkat cells; host or cells: Jurkat cells (ATCC TIB-152), monoclonal line with CRISPR knock-in of HiBiT at the endogenous HPK1 locus
Put plainly: HPK1 Cellular HiBit Degradation Assay. Conditions: HiBiT HPK1 Jurkat cells, 24 hrs; for DC50: concentration at which 50% of HPK1 was remaining, read-out: DC50 Category; for Dmax: Jurkat, maximum degradation vs DMSO vehicle control, read-out: Dmax Category. The class given is cell-based. Summed up:
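Degraders are dosed in an 11-point series (10 uM to 0.1 nM final) onto Jurkat cells carrying an N-terminal HiBiT tag on endogenous HPK1. After 24 hrs at 37° C, lysis-based HiBiT luminescence quantifies remaining HPK1 relative to vehicle, and curve fitting gives DC50 and Dmax.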
(With HiBiT, luminescence reflects the tagged protein that the partner subunit can reach.)

T1 sequence (Q92918 whole entry): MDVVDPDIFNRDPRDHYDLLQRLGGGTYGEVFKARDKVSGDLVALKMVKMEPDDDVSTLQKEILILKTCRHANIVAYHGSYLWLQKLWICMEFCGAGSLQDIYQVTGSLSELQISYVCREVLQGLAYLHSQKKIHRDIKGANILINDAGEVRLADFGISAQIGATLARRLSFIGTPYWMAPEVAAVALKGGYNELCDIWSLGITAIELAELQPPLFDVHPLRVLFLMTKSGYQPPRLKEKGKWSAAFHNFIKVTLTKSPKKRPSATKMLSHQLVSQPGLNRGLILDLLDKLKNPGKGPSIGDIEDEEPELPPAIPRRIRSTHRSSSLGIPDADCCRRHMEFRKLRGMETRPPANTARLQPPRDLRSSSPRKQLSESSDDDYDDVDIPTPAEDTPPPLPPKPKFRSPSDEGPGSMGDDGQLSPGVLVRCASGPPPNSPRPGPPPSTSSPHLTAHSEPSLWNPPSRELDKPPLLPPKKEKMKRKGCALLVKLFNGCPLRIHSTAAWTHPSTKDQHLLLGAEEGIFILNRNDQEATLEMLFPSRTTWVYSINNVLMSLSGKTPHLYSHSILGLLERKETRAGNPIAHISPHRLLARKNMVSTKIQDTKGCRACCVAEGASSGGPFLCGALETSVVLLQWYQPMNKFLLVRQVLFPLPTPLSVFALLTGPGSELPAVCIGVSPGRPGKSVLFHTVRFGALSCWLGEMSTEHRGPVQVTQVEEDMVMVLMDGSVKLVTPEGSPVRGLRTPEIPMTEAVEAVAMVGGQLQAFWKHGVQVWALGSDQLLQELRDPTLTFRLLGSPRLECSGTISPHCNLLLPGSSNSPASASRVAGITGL

Take `CC(C)n1cnc2cc(-c3ccc4c(c3)N([C@H]3C[C@@H](N5C6CCC5COC6)C3)C(=O)C43CCN(C(=O)C4(C)CCN(C(=O)CC5CCN(c6ccc(C7CCC(=O)NC7=O)cc6)CC5)CC4)CC3)nc(NC3CC3)c21` (mixture of isomers) [Example 202, (3RS)-3-[4-(4-{2-[4-({6-[4-(cyclopropylamino)-3-(propan-2-yl)-3H-imidazo[4,5-c]pyridin-6-yl]-2-oxo-1-[(1S,3S)-3-{3-oxa-8-azabicyclo[3.2.1]octan-8-yl}cyclobutyl]-1,2-dihydrospiro[indole-3,4′-piperidin]-1′-yl}carbonyl)-4-methylpiperidin-1-yl]-2-oxoethyl}piperidin-1-yl)phenyl]piperidine-2,6-dione]: the DC50 was in the range of 500 to 1000 nM and the Dmax was in the range of 50 to 70%.
The matching figures for `CC(C)n1cnc2cc(-c3ccc4c(c3)N([C@H]3C[C@@H](N5CCC[C@H](F)C5)C3)C(=O)C43CCN(C(=O)C4(C)CCN(C(=O)C5CCN(c6ccc(C7CCC(=O)NC7=O)cn6)CC5)CC4)CC3)nc(NC3CC3)c21` (mixture of isomers) [Example 203, (3RS)-3-(6-{4-[4-({6-[4-(cyclopropylamino)-3-(propan-2-yl)-3H-imidazo[4,5-c]pyridin-6-yl]-2-oxo-1-[(1S,3S)-3-[(3S)-3-fluoropiperidin-1-yl]cyclobutyl]-1,2-dihydrospiro[indole-3,4′-piperidin]-1′-yl}carbonyl)-4-methylpiperidine-1-carbonyl]piperidin-1-yl}pyridin-3-yl)piperidine-2,6-dione]: < 100 nM and 70 to 85%.
Turning to `CC(C)n1cnc2cc(-c3ccc4c(c3)N([C@H]3C[C@@H](N5CC6CCC(C5)O6)C3)C(=O)C43CCN(C(=O)C4(C)CCN(C(=O)C5CCN(c6ccc(C7CCC(=O)NC7=O)cn6)CC5)CC4)CC3)nc(NC3CC3)c21` (mixture of isomers) [Example 204, (3RS)-3-(6-{4-[4-({6-[4-(cyclopropylamino)-3-(propan-2-yl)-3H-imidazo[4,5-c]pyridin-6-yl]-2-oxo-1-[(1S,3S)-3-{8-oxa-3-Azabicyclo[3.2.1]octan-3-yl}cyclobutyl]-1,2-dihydrospiro[indole-3,4′-piperidin]-1′-yl}carbonyl)-4-methylpiperidine-1-carbonyl]piperidin-1-yl}pyridin-3-yl)piperidine-2,6-dione], the half-maximal degradation concentration (DC50) was in the range of 100 to 500 nM and the Dmax lay in the range of 70 to 85%.
For the compound `CC(C)n1cnc2cc(-c3ccc4c(c3)N([C@H]3C[C@@H](N5CCC[C@@H](F)C5)C3)C(=O)C43CCN(C(=O)C4(C)CCN(C(=O)CC5CCN(c6ccc(C7CCC(=O)NC7=O)cn6)CC5)CC4)CC3)nc(NC3CC3)c21` (mixture of isomers) [Example 205, (3RS)-3-[6-(4-{2-[4-({6-[4-(cyclopropylamino)-3-(propan-2-yl)-3H-imidazo[4,5-c]pyridin-6-yl]-2-oxo-1-[(1S,3S)-3-[(3R)-3-fluoropiperidin-1-yl]cyclobutyl]-1,2-dihydrospiro[indole-3,4′-piperidin]-1′-yl}carbonyl)-4-methylpiperidin-1-yl]-2-oxoethyl}piperidin-1-yl)pyridin-3-yl]piperidine-2,6-dione], the half-maximal degradation concentration (DC50) lay in the range of 100 to 500 nM and the Dmax lay in the range of 50 to 70%.
The like results for `CC(C)n1cnc2cc(-c3ccc4c(c3)N([C@H]3C[C@@H](N5CCC[C@H](F)C5)C3)C(=O)C43CCN(C(=O)C4(C)CCN(C(=O)CC5CCN(c6ccc(C7CCC(=O)NC7=O)cn6)CC5)CC4)CC3)nc(NC3CC3)c21` (mixture of isomers) [Example 206, (3RS)-3-[6-(4-{2-[4-({6-[4-(cyclopropylamino)-3-(propan-2-yl)-3H-imidazo[4,5-c]pyridin-6-yl]-2-oxo-1-[(1S,3S)-3-[(3S)-3-fluoropiperidin-1-yl]cyclobutyl]-1,2-dihydrospiro[indole-3,4′-piperidin]-1′-yl}carbonyl)-4-methylpiperidin-1-yl]-2-oxoethyl}piperidin-1-yl)pyridin-3-yl]piperidine-2,6-dione] were, in that order, 100 to 500 nM and 50 to 70%.
As to `CC(C)n1cnc2cc(-c3ccc4c(c3)N([C@H]3C[C@@H](N5CC6CCC(C5)O6)C3)C(=O)C43CCN(C(=O)C4(C)CCN(C(=O)CC5CCN(c6ccc(C7CCC(=O)NC7=O)cn6)CC5)CC4)CC3)nc(NC3CC3)c21` (mixture of isomers) [Example 207, (3RS)-3-[6-(4-{2-[4-({6-[4-(cyclopropylamino)-3-(propan-2-yl)-3H-imidazo[4,5-c]pyridin-6-yl]-2-oxo-1-[(1S,3S)-3-{8-oxa-3-Azabicyclo[3.2.1]octan-3-yl}cyclobutyl]-1,2-dihydrospiro[indole-3,4′-piperidin]-1′-yl}carbonyl)-4-methylpiperidin-1-yl]-2-oxoethyl}piperidin-1-yl)pyridin-3-yl]piperidine-2,6-dione], the 50% degradation concentration (DC50) lay in the range of 500 to 1000 nM and the Dmax lay within 50 to 70%.
Regarding `CC(C)n1cnc2cc(-c3ccc4c(c3)N([C@H]3C[C@@H](N5CCC(F)CC5)C3)C(=O)C43CCN(C(=O)C4(C)CCN(C(=O)C5CCN(c6ccc(C7CCC(=O)NC7=O)cn6)CC5)CC4)CC3)nc(NC3CC3)c21` (mixture of isomers) [Example 208, (3RS)-3-(6-{4-[4-({6-[4-(cyclopropylamino)-3-(propan-2-yl)-3H-imidazo[4,5-c]pyridin-6-yl]-2-oxo-1-[(1S,3S)-3-(4-fluoropiperidin-1-yl)cyclobutyl]-1,2-dihydrospiro[indole-3,4′-piperidin]-1′-yl}carbonyl)-4-methylpiperidine-1-carbonyl]piperidin-1-yl}pyridin-3-yl)piperidine-2,6-dione], the DC50 is 100 to 500 nM and the Dmax lay within 50 to 70%.
In the case of `CC(C)n1cnc2cc(-c3ccc4c(c3)N([C@H]3C[C@@H](N5CCCCC5)C3)C(=O)C43CCN(C(=O)C4(C)CCN(C(=O)C5CCN(c6ccc(C7CCC(=O)NC7=O)nn6)CC5)CC4)CC3)nc(NC3CC3)c21` (mixture of isomers) [Example 209, (3RS)-3-(6-{4-[4-({6-[4-(cyclopropylamino)-3-(propan-2-yl)-3H-imidazo[4,5-c]pyridin-6-yl]-2-oxo-1-[(1S,3S)-3-(piperidin-1-yl)cyclobutyl]-1,2-dihydrospiro[indole-3,4′-piperidin]-1′-yl}carbonyl)-4-methylpiperidine-1-carbonyl]piperidin-1-yl}pyridazin-3-yl)piperidine-2,6-dione], the DC50 is < 100 nM and the Dmax lay in the range of 70 to 85%.
Take `CC(C)n1cnc2cc(-c3ccc4c(c3)N([C@H]3C[C@@H](N5CCCCC5)C3)C(=O)C43CCN(C(=O)C4(C)CCN(C(=O)C5CCN(c6ccc(C7CCC(=O)NC7=O)c(F)c6)CC5)CC4)CC3)nc(NC3CC3)c21` (mixture of isomers) [Example 210, (3RS)-3-(4-{4-[4-({6-[4-(cyclopropylamino)-3-(propan-2-yl)-3H-imidazo[4,5-c]pyridin-6-yl]-2-oxo-1-[(1S,3S)-3-(piperidin-1-yl)cyclobutyl]-1,2-dihydrospiro[indole-3,4′-piperidin]-1′-yl}carbonyl)-4-methylpiperidine-1-carbonyl]piperidin-1-yl}-2-Fluorophenyl)piperidine-2,6-dione]: the DC50 is < 100 nM and the Dmax is 70 to 85%.
For `CC(C)n1cnc2cc(-c3ccc4c(c3)N([C@H]3C[C@@H](N5CCCCC5)C3)C(=O)C43CCN(C(=O)C4(C)CCN(C(=O)C5CCN(c6ccc(C7CCC(=O)NC7=O)cn6)CC5)CC4)CC3)nc(NC3CCOCC3)c21` (mixture of isomers) [Example 214, (3RS)-3-[6-(4-{4-methyl-4-[(6-{4-[(oxan-4-yl)amino]-3-(propan-2-yl)-3H-imidazo[4,5-c]pyridin-6-yl}-2-oxo-1-[(1S,3S)-3-(piperidin-1-yl)cyclobutyl]-1,2-dihydrospiro[indole-3,4′-piperidin]-1′-yl)carbonyl]piperidine-1-carbonyl}piperidin-1-yl)pyridin-3-yl]piperidine-2,6-dione], the DC50 is < 100 nM and the Dmax lay within 70 to 85%.
The like results for `CC(C)n1cnc2cc(-c3ccc4c(c3)N([C@H]3C[C@@H](N5C6CCC5COC6)C3)C(=O)C43CCN(C(=O)C4(C)CCN(C(=O)C5CCN(c6ccc(C7CCC(=O)NC7=O)cn6)CC5)CC4)CC3)nc(NC3CC3)c21` (mixture of isomers) [Example 215, (3RS)-3-(6-{4-[4-({6-[4-(cyclopropylamino)-3-(propan-2-yl)-3H-imidazo[4,5-c]pyridin-6-yl]-2-oxo-1-[(1S,3S)-3-{3-oxa-8-azabicyclo[3.2.1]octan-8-yl}cyclobutyl]-1,2-dihydrospiro[indole-3,4′-piperidin]-1′-yl}carbonyl)-4-methylpiperidine-1-carbonyl]piperidin-1-yl}pyridin-3-yl)piperidine-2,6-dione] were, in that order, < 100 nM and 70 to 85%.
The matching figures for `CC(C)n1cnc2cc(-c3ccc4c(c3)N([C@H]3C[C@@H](N5CCOCC5)C3)C(=O)C43CCN(C(=O)C4(C)CCN(C(=O)C5CCN(c6ccc(C7CCC(=O)NC7=O)cn6)CC5)CC4)CC3)nc(NC3CC3)c21` (mixture of isomers) [Example 216, (3RS)-3-(6-{4-[4-({6-[4-(cyclopropylamino)-3-(propan-2-yl)-3H-imidazo[4,5-c]pyridin-6-yl]-2-oxo-1-[(1S,3S)-3-(MORPHOLIN-4-yl)cyclobutyl]-1,2-dihydrospiro[indole-3,4′-piperidin]-1′-yl}carbonyl)-4-methylpiperidine-1-carbonyl]piperidin-1-yl}pyridin-3-yl)piperidine-2,6-dione]: 100 to 500 nM and 50 to 70%.
